# Values joined by “and” are separate entries in the source; they are usually repeats but may differ in a detail not shown here. Equal values may be shown once.
# Columns and labels:
# [1] = Biodistribution studies of 11C tracers; assay type: in vivo, Wistar rats; settings: for SUV Blood / SUV Cerebellum / SUV Cerebrum total / SUV Cortex / SUV Hippocampus / SUV Striatum: normalized for body weight;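 as to Total brain uptake: percentage of injected dose (% ID)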
# How it was run: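 Healthy male Wistar rats (n=3 per time point) received about 11 or 22 MBq tracer i.v. via tail vein under isoflurane; sacrificed at 2, 30 and 60 min p.i. Gamma counting of blood and organs gave %ID and %ID/g, with blood taken as 7% of body mass.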
# mGluR2 = molecular target: T1, mGluR2 (Rattus norvegicus, UniProt P31421); assay: MicroPET imaging: baseline, blocking and chase experiments; assay type: in vivo, Wistar rats
# T1 construct: from tissue; host or cells: brain of living male Wistar rats (in vivo microPET)
# How it was run: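 Healthy male Wistar rats under isoflurane; 30-60 MBq [11C]tracer i.v., 90 min dynamic microPET, regional SUV time-activity curves. Self-block: B-4 10 mg/kg s.c. 30 min pre-tracer; chase: i.v. 30 min post-tracer with B-4 3 mg/kg, compound B 4, 1, 0.3 or 0.1 mg/kg, compound A 1 mg/kg or ritanserin 0.3 mg/kg.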
# T1 sequence (P31421 19-872): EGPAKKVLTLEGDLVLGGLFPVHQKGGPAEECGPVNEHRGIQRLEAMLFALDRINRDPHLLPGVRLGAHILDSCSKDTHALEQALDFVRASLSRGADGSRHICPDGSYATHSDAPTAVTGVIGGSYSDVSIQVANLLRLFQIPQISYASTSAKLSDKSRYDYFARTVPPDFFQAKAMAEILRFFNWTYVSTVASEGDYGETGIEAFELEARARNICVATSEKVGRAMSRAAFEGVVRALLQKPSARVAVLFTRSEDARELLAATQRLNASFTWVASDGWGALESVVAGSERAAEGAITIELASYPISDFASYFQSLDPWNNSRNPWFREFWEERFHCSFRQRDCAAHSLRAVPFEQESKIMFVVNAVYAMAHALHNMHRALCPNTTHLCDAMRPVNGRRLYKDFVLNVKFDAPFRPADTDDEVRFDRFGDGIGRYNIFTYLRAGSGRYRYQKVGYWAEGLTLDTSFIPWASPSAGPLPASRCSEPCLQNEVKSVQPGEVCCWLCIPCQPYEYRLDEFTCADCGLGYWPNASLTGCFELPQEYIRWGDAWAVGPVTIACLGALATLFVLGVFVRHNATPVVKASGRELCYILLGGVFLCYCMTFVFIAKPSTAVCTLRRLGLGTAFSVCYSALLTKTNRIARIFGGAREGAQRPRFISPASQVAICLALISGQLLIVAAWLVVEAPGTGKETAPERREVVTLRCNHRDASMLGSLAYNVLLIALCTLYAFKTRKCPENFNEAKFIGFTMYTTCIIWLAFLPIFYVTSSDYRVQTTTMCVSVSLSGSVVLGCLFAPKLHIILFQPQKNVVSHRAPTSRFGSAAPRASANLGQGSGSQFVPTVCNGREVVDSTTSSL
compound,measurement,setting,value
"[11CH3]Oc1ccc(F)c(F)c1C1CCN(c2ccn3c(CC4CC4)nnc3c2Cl)CC1 [[^11C]B-10, 8-chloro-3-(cyclopropylmethyl)-7-[4-[2,3-difluoro-6-[^11C]methoxyphenyl]-1-piperidinyl]-1,2,4-triazolo[4,3-a]pyridine]",% ID Blood,[1]; 2 min p.i.,6.0 % ID and 6.0 ± 1.3 % ID
same,% ID Carcass,[1]; 2 min p.i.,38.5 ± 2.5 % ID
same,% ID Cerebellum,[1]; 2 min p.i.,0.15 % ID and 0.149 ± 0.054 % ID
same,% ID Cerebrum total,[1]; 2 min p.i.,0.46 % ID and 0.456 ± 0.114 % ID
same,% ID Cortex,[1]; 2 min p.i.,0.053 ± 0.025 % ID
same,% ID Heart,[1]; 2 min p.i.,4.3 ± 0.3 % ID
same,% ID Hippocampus,[1]; 2 min p.i.,0.017 ± 0.005 % ID
same,% ID Intestines,[1]; 2 min p.i.,8.5 ± 0.2 % ID
same,% ID Kidneys,[1]; 2 min p.i.,7.8 ± 1.1 % ID
same,% ID Liver,[1]; 2 min p.i.,32.3 ± 3.2 % ID
same,% ID Lungs,[1]; 2 min p.i.,1.8 ± 0.1 % ID
same,% ID Rest of cerebrum,[1]; 2 min p.i.,0.387 ± 0.084 % ID
same,% ID Spleen + Pancreas,[1]; 2 min p.i.,1.5 ± 0.3 % ID
same,% ID Stomach,[1]; 2 min p.i.,1.8 ± 0.1 % ID
same,% ID Striatum,[1]; 2 min p.i.,0.026 ± 0.012 % ID
same,% ID Urine,[1]; 2 min p.i.,0.1 ± 0.0 % ID
same,Total brain uptake,[1]; 2 min p.i.,0.64 % ID and 0.64 ± 0.1 % ID
same,SUV Blood,[1]; 2 min p.i.,0.90 ± 0.02
same,SUV Cerebellum,[1]; 2 min p.i.,1.59 ± 0.06
same,SUV Cerebrum total,[1]; 2 min p.i.,1.12 ± 0.03
same,SUV Cortex,[1]; 2 min p.i.,1.16 and 1.16 ± 0.04
same,SUV Hippocampus,[1]; 2 min p.i.,1.11 ± 0.08
same,SUV Striatum,[1]; 2 min p.i.,1.37 ± 0.05
same,% ID Blood,[1]; 30 min p.i.,3.9 ± 0.1 % ID
same,% ID Carcass,[1]; 30 min p.i.,62.97 ± 2.4 % ID
same,% ID Cerebellum,[1]; 30 min p.i.,0.152 ± 0.023 % ID
same,% ID Cerebrum total,[1]; 30 min p.i.,0.637 ± 0.078 % ID
same,% ID Cortex,[1]; 30 min p.i.,0.071 ± 0.006 % ID
same,% ID Heart,[1]; 30 min p.i.,1.8 ± 0.1 % ID
same,% ID Hippocampus,[1]; 30 min p.i.,0.021 ± 0.004 % ID
same,% ID Intestines,[1]; 30 min p.i.,9.2 ± 1.4 % ID
same,% ID Kidneys,[1]; 30 min p.i.,3.3 ± 0.2 % ID
same,% ID Liver,[1]; 30 min p.i.,16.2 ± 0.4 % ID
same,% ID Lungs,[1]; 30 min p.i.,0.8 ± 0.0 % ID
same,% ID Rest of cerebrum,[1]; 30 min p.i.,0.511 ± 0.063 % ID
same,% ID Spleen + Pancreas,[1]; 30 min p.i.,1.1 ± 0.1 % ID
same,% ID Stomach,[1]; 30 min p.i.,1.8 ± 0.4 % ID
same,% ID Striatum,[1]; 30 min p.i.,0.034 ± 0.005 % ID
same,% ID Urine,[1]; 30 min p.i.,0.3 ± 0.0 % ID
same,Total brain uptake,[1]; 30 min p.i.,0.80 ± 0.1 % ID
same,SUV Blood,[1]; 30 min p.i.,0.50 ± 0.00
same,SUV Cerebellum,[1]; 30 min p.i.,1.68 and 1.68 ± 0.05
same,SUV Cerebrum total,[1]; 30 min p.i.,1.34 ± 0.03
same,SUV Cortex,[1]; 30 min p.i.,1.39 and 1.39 ± 0.05
same,SUV Hippocampus,[1]; 30 min p.i.,0.93 ± 0.02
same,SUV Striatum,[1]; 30 min p.i.,1.39 ± 0.03
same,% ID Blood,[1]; 60 min p.i.,3.4 % ID and 3.4 ± 0.2 % ID
same,% ID Carcass,[1]; 60 min p.i.,63.7 ± 1.8 % ID
same,% ID Cerebellum,[1]; 60 min p.i.,0.172 ± 0.030 % ID
same,% ID Cerebrum total,[1]; 60 min p.i.,0.598 ± 0.036 % ID
same,% ID Cortex,[1]; 60 min p.i.,0.070 ± 0.002 % ID
same,% ID Heart,[1]; 60 min p.i.,1.2 ± 0.1 % ID
same,% ID Hippocampus,[1]; 60 min p.i.,0.026 ± 0.002 % ID
same,% ID Intestines,[1]; 60 min p.i.,11.8 ± 0.0 % ID
same,% ID Kidneys,[1]; 60 min p.i.,2.6 ± 0.2 % ID
same,% ID Liver,[1]; 60 min p.i.,13.7 ± 1.3 % ID
same,% ID Lungs,[1]; 60 min p.i.,0.7 ± 0.0 % ID
same,% ID Rest of cerebrum,[1]; 60 min p.i.,0.466 ± 0.033 % ID
same,% ID Spleen + Pancreas,[1]; 60 min p.i.,1.4 ± 0.5 % ID
same,% ID Stomach,[1]; 60 min p.i.,2.0 ± 0.4 % ID
same,% ID Striatum,[1]; 60 min p.i.,0.035 ± 0.005 % ID
same,% ID Urine,[1]; 60 min p.i.,0.4 ± 0.1 % ID
same,% ID present in liver and intestines,[1]; 60 min p.i.,25.5 % ID
same,% ID present in the urinary system,[1]; 60 min p.i.,3.0 % ID
same,Total brain uptake,[1]; 60 min p.i.,0.78 ± 0.0 % ID
same,SUV Blood,[1]; 60 min p.i.,0.50 ± 0.00
same,SUV Cerebellum,[1]; 60 min p.i.,1.52 ± 0.02
same,SUV Cerebrum total,[1]; 60 min p.i.,1.19 ± 0.01
same,SUV Cortex,[1]; 60 min p.i.,1.08 ± 0.01
same,SUV Hippocampus,[1]; 60 min p.i.,0.94 ± 0.01
same,SUV Striatum,[1]; 60 min p.i.,1.55 ± 0.01
same,% reduction of SUV (total brain) due to chase,mGluR2; chase compound B 4 mg/kg i.v.,58%
same,SUV (total brain) before chase,"mGluR2; maximum SUV, chase compound B 4 mg/kg i.v. 30 min after tracer",1.2
same,SUV (total brain) after chase,"mGluR2; minimum SUV, chase compound B 4 mg/kg i.v. 30 min after tracer",0.5

# Reference: patent US20130230459A1, “RADIOLABELLED mGluR2 PET LIGANDS” (Janssen Pharmaceuticals, Inc., priority 2010, published 2013)
